Data: PubChem BioAssay (NCI)
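These data come from cells grown in 96-well plates and exposed to compound for 48 hours at five concentrations. TGI: concentration producing complete growth inhibition.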

Tests used:
Experiment in all cases: NCI tumour cell line growth inhibition, 48 h
786-0 renal = tested on: 786-0 renal
A498 renal = tested on: A498 renal
A549 NSCLC = tested on: A549 NSCLC
ACHN renal = tested on: ACHN renal
BT-549 breast = tested on: BT-549 breast
CAKI-1 renal = tested on: CAKI-1 renal
CCRF-CEM leukemia = tested on: CCRF-CEM leukemia
COLO 205 colon = tested on: COLO 205 colon
EKVX NSCLC = tested on: EKVX NSCLC
HCC-2998 colon = tested on: HCC-2998 colon
HCT-116 colon = tested on: HCT-116 colon
HCT-15 colon = tested on: HCT-15 colon
HOP-62 NSCLC = tested on: HOP-62 NSCLC
IGROV1 ovarian = tested on: IGROV1 ovarian
KM12 colon = tested on: KM12 colon
LOX IMVI melanoma = tested on: LOX IMVI melanoma
M14 melanoma = tested on: M14 melanoma
MALME-3M melanoma = tested on: MALME-3M melanoma
MCF7 breast = tested on: MCF7 breast
MDA-MB-231 breast = tested on: MDA-MB-231 breast
MDA-MB-435 = tested on: MDA-MB-435
MDA-N = tested on: MDA-N
NCI-H226 lung = tested on: NCI-H226 lung
NCI-H23 lung = tested on: NCI-H23 lung
NCI-H460 lung = tested on: NCI-H460 lung
NCI-H522 lung = tested on: NCI-H522 lung
NCI/ADR-RES ovarian = tested on: NCI/ADR-RES ovarian
OVCAR-3 ovarian = tested on: OVCAR-3 ovarian
OVCAR-4 ovarian = tested on: OVCAR-4 ovarian
OVCAR-5 ovarian = tested on: OVCAR-5 ovarian
OVCAR-8 ovarian = tested on: OVCAR-8 ovarian
PC-3 prostate = tested on: PC-3 prostate
RPMI-8226 leukemia = tested on: RPMI-8226 leukemia
RXF 393 renal = tested on: RXF 393 renal
SF-268 CNS = tested on: SF-268 CNS
SF-295 CNS = tested on: SF-295 CNS
SF-539 CNS = tested on: SF-539 CNS
SK-MEL-2 melanoma = tested on: SK-MEL-2 melanoma
SK-MEL-28 melanoma = tested on: SK-MEL-28 melanoma
SK-MEL-5 melanoma = tested on: SK-MEL-5 melanoma
SK-OV-3 ovarian = tested on: SK-OV-3 ovarian
SN12C renal = tested on: SN12C renal
SNB-19 CNS = tested on: SNB-19 CNS
SNB-75 CNS = tested on: SNB-75 CNS
SW-620 colon = tested on: SW-620 colon
T-47D breast = tested on: T-47D breast
TK-10 renal = tested on: TK-10 renal
U251 CNS = tested on: U251 CNS
UACC-257 melanoma = tested on: UACC-257 melanoma
UO-31 renal = tested on: UO-31 renal
DU-145 prostate = tested on: DU-145 prostate
HOP-92 NSCLC = tested on: HOP-92 NSCLC
HS 578T breast = tested on: HS 578T breast
HT29 colon = tested on: HT29 colon
K-562 leukemia = tested on: K-562 leukemia
MOLT-4 leukemia = tested on: MOLT-4 leukemia
SR leukemia = tested on: SR leukemia
HL-60(TB) leukemia = tested on: HL-60(TB) leukemia
UACC-62 melanoma = tested on: UACC-62 melanoma

Measured: TGI

N#Cc1c(-c2ccccc2)c(N=Nc2ccc(Cl)cc2)c(=O)n2c1[nH]c1ccccc12
73.2 µM: 786-0 renal
85.6 µM: OVCAR-4 ovarian
not listed: DU-145 prostate | HOP-92 NSCLC | HS 578T breast | HT29 colon | K-562 leukemia | MOLT-4 leukemia | SR leukemia | HL-60(TB) leukemia | UACC-62 melanoma
> 100 µM: all other assays above

C=CCO[C@]1(CC=C)C(=O)C(=O)OC1C1COC(C)(C)O1 (some centres not stated)
31.5 µM: LOX IMVI melanoma
74.7 µM: HCT-116 colon
41.3 µM: HOP-92 NSCLC
89.5 µM: CCRF-CEM leukemia
39.3 µM: KM12 colon
41.9 µM: CAKI-1 renal
42 µM: HCT-15 colon | MCF7 breast
40.8 µM: RXF 393 renal
35.4 µM: SW-620 colon
67 µM: SR leukemia
31.1 µM: ACHN renal
37.2 µM: HT29 colon
97.6 µM: SK-MEL-5 melanoma
77.2 µM: SNB-75 CNS
81.6 µM: OVCAR-8 ovarian
37.5 µM: COLO 205 colon
93.8 µM: MOLT-4 leukemia
32.3 µM: MALME-3M melanoma
43.6 µM: NCI-H522 lung
73 µM: RPMI-8226 leukemia
not listed: BT-549 breast | M14 melanoma | OVCAR-4 ovarian | SK-MEL-2 melanoma | SK-MEL-28 melanoma | SK-OV-3 ovarian | TK-10 renal | HL-60(TB) leukemia | UACC-62 melanoma
> 100 µM: all other assays above

C=C(Nc1ccc([N+](=O)[O-])cc1[N+](=O)[O-])c1c/c(=N\NC(N)=S)c2ccccc2o1
55.7 µM: SF-539 CNS
86.1 µM: OVCAR-3 ovarian
68.7 µM: SR leukemia
not listed: A498 renal | MALME-3M melanoma | RPMI-8226 leukemia | T-47D breast | K-562 leukemia
> 100 µM: all other assays above

CCOC(=O)c1sc2[n+](c1C)C(=O)/C(=C/c1ccc([N+](=O)[O-])cc1)S2
50.7 µM: TK-10 renal
92.3 µM: DU-145 prostate
66.9 µM: MDA-N
74 µM: HOP-62 NSCLC
98 µM: UACC-257 melanoma
37.7 µM: CAKI-1 renal
42.5 µM: NCI/ADR-RES ovarian
53.5 µM: MOLT-4 leukemia
41.9 µM: HT29 colon
45 µM: NCI-H460 lung
64.6 µM: SK-OV-3 ovarian
77.2 µM: T-47D breast
81.5 µM: RXF 393 renal
83.4 µM: K-562 leukemia
62.6 µM: MCF7 breast
46.2 µM: MDA-MB-435
48.4 µM: NCI-H23 lung
57.4 µM: PC-3 prostate
24.1 µM: OVCAR-3 ovarian
49.7 µM: SNB-75 CNS
73.5 µM: SW-620 colon
47.5 µM: KM12 colon
54.7 µM: HCT-116 colon | SF-539 CNS
56.8 µM: 786-0 renal
47.3 µM: SF-268 CNS
64.4 µM: SF-295 CNS
68.7 µM: COLO 205 colon
58.4 µM: NCI-H226 lung
40.3 µM: U251 CNS | UACC-62 melanoma
72.1 µM: SK-MEL-5 melanoma
69.9 µM: OVCAR-8 ovarian
67.3 µM: RPMI-8226 leukemia
67 µM: HS 578T breast
51.2 µM: SK-MEL-2 melanoma
61.1 µM: LOX IMVI melanoma
57.7 µM: SR leukemia
37.5 µM: HCC-2998 colon
33.4 µM: UO-31 renal
not listed: BT-549 breast | EKVX NSCLC | HCT-15 colon | IGROV1 ovarian | MALME-3M melanoma | NCI-H522 lung
> 100 µM: all other assays above
